Laboratory results taken from US10053725B2, “In situ interaction determination” (President and Fellows of Harvard College, priority 2013, dated 2018).
Each block holds one molecule with its values, some of them ahead of it. Where no end group is shown, it is not given here.

How the values were obtained:
streptavidin (SA) [1] = molecular target: T1, streptavidin (SA) (Streptomyces avidinii, UniProt P22629); experiment: Antibody-mediated ISID with DNA-αSA and streptavidin (qPCR, mock-library enrichment); format: binding
Protocol: (§1) In cases where recombinant SA or CAII was added to HeLa lysate at 0.01% wt, the protein content of the HeLa cell lysate was first estimated using the Modified Lowry Assay Kit (Thermo Scientific). HeLa cell lysate replaced water in the primer extension reaction mixture, and was added in volumes of 5.7-8.5 μL, with a maximum weight of 60 μg total protein added.

streptavidin (SA) [2] = molecular target: T1, streptavidin (SA); settings: read-out: SA-iminobiotin Kd; cited from earlier work
[3] = molecular target: T2, SNAP-Bcl-xL or Bcl-xL-SNAP (Homo sapiens, UniProt Q07817); experiment: ISID in 293T cell lysate expressing SNAP-tagged Bcl-xL; format: binding; settings: mixtures of DNA-Bak/DNA-BakL78A/DNA-biotin
T2 construct: His6-Bcl-xL (truncated C-terminus, amino acids 1 to 212); expressed in transfected cells; host or cells: HEK-293T (lysate)

Bcl-xL = Bcl-xL (Homo sapiens, UniProt Q07817); settings: cited from earlier work
His6-Bcl-xL = molecular target: T3, His6-Bcl-xL (Homo sapiens, UniProt Q07817); experiment: ISID with DNA-αHis and His6-tagged Bcl-xL; format: binding
T3 construct: His6-Bcl-xL (truncated C-terminus, amino acids 1 to 212); expressed in transfected cells; host or cells: HEK-293T (lysate)

[4] = molecular target: T4, carbonic anhydrase II (CAII) (Homo sapiens, UniProt P00918, S2A); experiment: Antibody-mediated ISID with DNA-αCAII and CAII in HeLa lysate; format: binding; settings: T4 DNA polymerase; mock library DNA-GLCBS/DNA-desthiobiotin; 0.01% CAII in HeLa lysate
T4 construct: made in house; host or cells: E. coli BL21(DE3), pACA plasmid
Protocol: as §1

CAII-His6 = molecular target: T5, CAII-His6 (Homo sapiens, UniProt P00918); experiment: ISID with DNA-αHis and His6-tagged CAII; format: binding
T5 construct: expressed in transfected cells; host or cells: HEK-293T (lysate)

SNAP-CAII or CAII-SNAP = molecular target: T6, SNAP-CAII or CAII-SNAP (Homo sapiens, UniProt P00918, S2A); experiment: ISID in 293T cell lysate expressing SNAP-tagged CAII; format: binding; settings: 293T lysate expressing SNAP-CAII or CAII-SNAP; mixtures with DNA-desthiobiotin
T6 construct: expressed in transfected cells; host or cells: HEK-293T (lysate)

SNAP-CA = molecular target: T7, SNAP-CA (Homo sapiens, UniProt P00918); experiment: Model library×library ISID with SNAP-tagged targets: CAII; format: binding; settings: 262 DNA-linked ligands × 259 DNA-linked targets; counts DNA-BG sample / DNA alone sample
T7 construct: expressed in transfected cells; host or cells: HEK-293T (lysate)

[5] = molecular target: carbonic anhydrase II (CAII) (Homo sapiens, UniProt P00918); settings: read-out: CAII:GLCBS Kd; cited from earlier work
SNAP-Bcl-xL = molecular target: T8, SNAP-Bcl-xL (UniProt Q07817-1 1-212, SNAP-tag covalently labelled with O6-benzylguanine-linked DNA (DNA-BG)); experiment: model library x library ISID, pooled 293T lysates expressing SNAP-target fusions; sequence counts with DNA-BG divided by counts with DNA alone
T8 construct: also called N-terminally SNAP-tagged Bcl-xL; not shown: SNAP-tag from the pSNAPf vector (New England Biolabs)

[6] = molecular target: T9, His6-Bcl-xL (truncated C-terminus, amino acids 1 to 212) (UniProt Q07817 1-212); experiment: ISID with DNA-αHis in lysate of 293T cells expressing His6-Bcl-xL, mock library, restriction digest and PAGE
T9 construct: range 1-212

[7] = T4 DNA polymerase, 8-nt complementary region, mock library with DNA-GLCBS, SA 0.01% wt in HeLa lysate

T8 sequence (Q07817 1-212): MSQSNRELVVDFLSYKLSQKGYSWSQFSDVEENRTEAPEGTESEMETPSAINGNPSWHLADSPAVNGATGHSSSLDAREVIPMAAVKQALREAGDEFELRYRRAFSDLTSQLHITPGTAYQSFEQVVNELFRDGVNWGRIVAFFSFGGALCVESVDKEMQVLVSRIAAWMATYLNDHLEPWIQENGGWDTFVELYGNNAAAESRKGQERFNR
T3 sequence (Q07817 3-212): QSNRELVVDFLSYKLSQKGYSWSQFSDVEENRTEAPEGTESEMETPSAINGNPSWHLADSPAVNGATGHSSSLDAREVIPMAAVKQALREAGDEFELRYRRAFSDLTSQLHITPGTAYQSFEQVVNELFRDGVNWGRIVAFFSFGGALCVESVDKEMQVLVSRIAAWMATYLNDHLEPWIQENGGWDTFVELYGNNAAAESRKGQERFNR
T2 sequence (Q07817 1-212): as the sequence (Q07817 1-212) above
T9 sequence (Q07817 other isoform, or with tags, fused parts or gaps): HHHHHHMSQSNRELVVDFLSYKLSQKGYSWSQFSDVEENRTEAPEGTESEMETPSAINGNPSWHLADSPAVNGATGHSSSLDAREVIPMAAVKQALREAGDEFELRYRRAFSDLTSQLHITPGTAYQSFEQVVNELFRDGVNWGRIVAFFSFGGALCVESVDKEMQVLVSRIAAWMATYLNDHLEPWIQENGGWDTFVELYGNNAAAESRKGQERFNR
Bcl-xL, sequence (Q07817 whole entry, species assumed): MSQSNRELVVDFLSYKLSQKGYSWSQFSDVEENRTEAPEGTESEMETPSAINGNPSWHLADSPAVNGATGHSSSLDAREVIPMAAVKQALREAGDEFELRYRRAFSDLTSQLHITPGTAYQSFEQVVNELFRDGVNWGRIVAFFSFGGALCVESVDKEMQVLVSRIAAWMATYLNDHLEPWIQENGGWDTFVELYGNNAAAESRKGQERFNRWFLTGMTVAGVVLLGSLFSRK

Molecule: O=C(O)CCCC[C@@H]1SC[C@@H]2NC(=O)N[C@@H]21 [biotin]
- enrichment of sequence (streptavidin (SA) [1]; Klenow exo−, mixtures DNA-biotin/DNA-GLCBS, SA 0.01% wt in HeLa cell lysate): ~10 fold
- enrichment of sequence (streptavidin (SA) [1]; [7]): ~1,000 fold
- improvement in enrichment (streptavidin (SA) [1]; T4 DNA polymerase/8-nt vs Klenow exo−/6-nt complementary region): 100 fold

Molecule: C[C@@H]1NC(=O)N[C@@H]1CCCCCC(=O)O [desthiobiotin]
- ΔCT (streptavidin (SA) [1]; DNA-αSA, 0.01% SA in HeLa lysate, qPCR): 4.7
- enrichment of sequence (streptavidin (SA) [1]; [7]): ~1000 fold

Molecule: N=C1N[C@H]2[C@H](CS[C@H]2CCCCC(=O)O)N1 [iminobiotin]
- Kd (streptavidin (SA) [2]): 13 µM

- enrichment of sequence [3]: no enrichment
Molecule: BakL78A: BakL78A (72-87) peptide, a weakly binding mutant of the Bak peptide (GQVGRQAAIIGDDINR; not fully specified)
- Kd (Bcl-xL): 270 µM

- ΔCT (His6-Bcl-xL; 293T cell lysate expressing His6-BclxL, vs DNA-GLCBS or DNA-biotin): 8
- ΔCT (His6-Bcl-xL; recombinant His6-Bcl-xL): 3 cycles
Molecule: DNA-Bad: DNA oligonucleotide linked to Bad BH3 peptide

- enrichment of sequence [4]: 10 fold
- enrichment of sequence (CAII-His6; 293T cell lysate expressing CAII-His6, undiluted, mock library): ~10 fold
- enrichment of sequence (CAII-His6; transfected lysate diluted 1:10 into untransfected 293T lysate): ~100 fold
- enrichment of sequence (CAII-His6; transfected lysate diluted 1:100 into untransfected lysate, approximating 3 nM CAII-His6): ~10 fold
- enrichment of sequence (SNAP-CAII or CAII-SNAP): ~100 fold
- enrichment factor (SNAP-CA): 178.3
Molecule: Gly-Leu-CBS [GLCBS]
- Kd [5]: 0.04 µM

- enrichment factor (SNAP-Bcl-xL): 3.9
B1: BakL78A (72-87) peptide (peptide, UniProt Q16611 72-87, looked up)
peptide: GQVGRQAAIIGDDINR
modifications: also: conjugated to 3'-thiol-modified DNA via SM(PEG)2 crosslinker, site not given here
notes: range 72-87; also called DNA-BakL78A; 3i-BakL78A

- enrichment [6]: ~100 fold
- enrichment factor (SNAP-Bcl-xL): 238
B2: Bad BH3 peptide (103-127) (peptide, UniProt Q92934 103-127, looked up)
peptide: NLWAAQRYGRELRRMSDEFVDSFKK
modifications: also: conjugated to 3'-thiol DNA via SM(PEG)2 crosslinker, attachment site not given here
notes: range 103-127; Used as a peptide-DNA conjugate in ISID; also called DNA-Bad; 3h-Bad
